What all share (format): in vivo, SD rat
Assay [1] concerns rodent stroke model. In words: single-pellet reaching task (SPRT) in rodent stroke model. As to conditions: Stroke+rehab+KDS2010: 10 mg/kg orally once a day plus rehabilitation training; white-matter cerebral infarction rat model. As to the method:
(§1) Light stimuli was applied to the posterior limb of the internal capsule of a 9 week-old SD rat to produce a white-matter cerebral infarction animal model.
(§2) Specifically, the animal was anesthetized with an anesthetic drug, a combination of ketamine (ketamine hydrochloride, 100 mg/kg) and xylazine (7 mg/kg), and a hole was drilled at a position of 2.0 mm rearwards and 3.1 mm laterally outwards from the skull bregma using stereotaxis, and an optical fiber (inner diameter of 62.5 μm, outer diameter of 125 μm) was inserted to a depth of 7.2 mm to target the posterior limb of the internal capsule. Rose bengal (20 mg/kg) was injected into the tail vein, and optical stimulation was conducted using a 3.7 mW green laser for 1.5 minutes through an optical fiber. Then, the optical fiber was removed and the operation was completed, ketoprofen (2 mg/kg) was injected for pain control, and then the animal was allowed to recover. The control group was injected with 0.9% saline, instead of rose bengal. […]
For the single-pellet reaching task, an acrylic box (45 cm×13 cm×40 cm) having a 1 cm vertical slit on the front wall thereof was used, and a sugar pellet was placed in front of the slit. […] The proportion of the number of pellets remaining in the mouth, without dropping, to 20 pellets in total was calculated.

The subject of assay [2] is rodent stroke model. As to the kind of experiment: neurofiber staining, size of the infarction in an internal capsule. As to conditions: 10 mg/kg orally once a day. As for the experimental part:
as §1
Specifically, the animal was anesthetized with an anesthetic drug, a combination of ketamine (ketamine hydrochloride, 100 mg/kg) and xylazine (7 mg/kg), and a hole was drilled at a position of 2.0 mm rearwards and 3.1 mm laterally outwards from the skull bregma using stereotaxis, and an optical fiber (inner diameter of 62.5 μm, outer diameter of 125 μm) was inserted to a depth of 7.2 mm to target the posterior limb of the internal capsule. Rose bengal (20 mg/kg) was injected into the tail vein, and optical stimulation was conducted using a 3.7 mW green laser for 1.5 minutes through an optical fiber. Then, the optical fiber was removed and the operation was completed, ketoprofen (2 mg/kg) was injected for pain control, and then the animal was allowed to recover. The control group was injected with 0.9% saline, instead of rose bengal.
Rats in the group administered with KDS2010 as a drug were orally administered with a solution of KDS2010 in saline at a concentration of 10 mg/kg once a day (FIG. 2A).
Rats in the rehabilitation-trained group practiced a single-pellet reaching task (SPRT) for 20 minutes daily for 3 weeks after stroke surgery. […]

Assay [3] relates to rodent stroke model. As to the kind of experiment: cylinder test in rodent stroke model. The conditions noted are these: Stroke+KDS2010: 10 mg/kg orally once a day, no rehabilitation; compared to the control group. As for the experimental part:
as §1, §2
For the cylinder test, animals were placed in a transparent cylinder (20 cm in diameter and 30 cm in height) to observe which limb was used more when supporting the cylinder wall with the forelimbs. A total of 20 movements were recorded, and the ratio of the use of the forelimb corresponding to the stroke and the opposite forelimb was calculated during the total number of cycles.

For the compound `C[C@H](NCc1ccc(-c2ccc(C(F)(F)F)cc2)cc1)C(N)=O` [KDS2010, (S)-2-(((4′-trifluoromethylbiphenyl-4-yl)methyl)amino)propanamide methanesulfonate], the “motor function through single-pellet reaching task” value in the assay with rodent stroke model [1] was “recovered motor function to an almost normal level”. The “size of the infarction in the internal capsules” value is “considerably larger size of the infarction” in the assay on rodent stroke model [2] (Stroke+KDS: drug-administered group, no rehabilitation, versus control group) and “further reduced infarction sizes” in the assay with rodent stroke model [2] (Stroke+rehab+KDS: rehabilitation training in combination with drug administration). For the same compound, the “motor function using the cylinder test” value with rodent stroke model [3] is “significantly recovered motor function”.

For the origin of these results see patent US20210401782A1, “COMPOSITION FOR PREVENTING AND TREATMENT OF STROKE” (NEUROBIOGEN CO.,LTD, priority 2018, published 2021).
